Entries after “also recorded” stand apart in the source; their conditions may differ.
Experiments:
[1] = test system: cellular line of human neuroblastoma (SK-N-BE); test: MTT test (reduction of tetrazolium salts) on human neuroblastoma cells; assay type: cell-based; conditions: for reduction of the cell survival (formazan absorbance data): final concentrations 10-30-50-100 and 200 μM, forty-eight, seventy-two and ninety-six hours, absorbance at 570 nm; for morphologic changes visible with an optical microscope (loss of adherence to the plate, roundish shape with irregular outlines): treated cells
Excerpt: (§1) The compound GD152.186 (PM 449,4) produced by means of above mentioned synthesis process, has been tested in a series of preclinical testing on cellular lines of human tumors, and in particular on a cellular line of human neuroblastoma (SK-N-BE) and on a cellular line of human promyelokytic leukemia (HL60).
The culture medium used for growing the SK-N-BE cells is DMEM High Glucose (Dulbecco's Modified Eagle Medium) with 10% FBS (fetal bovine serum), 1% L-Glutamine and 1% Penicillin/Streptomycin antibiotics.
(§2) As a positive control, arsenic trioxide (As2O3, Sigma-Aldrich) has been used, as its activity has already been tested on cellular lines of human neuroblastoma and human promyelokytic leukemia.
(§3) The compound GD152.186 has been dissolved in sterile water so as to reach the final concentrations of 100-300-500-1000-2000 μM.
(§4) The test used for evaluating the persistence of tumor cells after the contact with said compound GD152.186 is the MTT test (reduction of tetrazolium salts).
(§5) Said test is based on the ability of the mitochondrial respiratory enzyme of the cells, usually called succinate tetrazolium reductase, of reducing a tetrazolium salt (3-[4,5-dimethylthiazol-2-yl]-2,5-diphenyltetrazolium bromide (MTT, Sigma Aldrich)) into an insoluble compound of blue colour, usually called formazan.
Said reduction process occurs only in living cells and not in dead or damaged ones, consequently, the amount of formazan produced is directly proportional to the number of cells metabolically active in the tested sample.
96-well plates have been used for performing the tests, wherein in each well 5.000 (SK-N-BE) cells or 50.000 (HL60) cells have been sown, suspended in 180 μL of medium and then incubated at 37° C. and 5% CO2.
Forty-eight hours later, the cells have been treated with 20 μL of growing concentrations (in six replicates) of arsenic trioxide (100-300-500-1000 μM) and of GD152.186 compound (100-300-500-1000-2000 μM), so as to obtain inside each single well the final concentrations of 10-30-50-100 and 200 μM.
To one six-well column no compound is added but only 20 μL of sterile water, for following the natural growth of the cells.
The plates are incubated again for forty-eight, seventy-two and ninety-six hours, at the end thereof the test is performed.
To each single well 20 μL of MTT solution (5 mg·m-1 in sterile […]) have been added, giving an incubation time of three hours, functional to the formation of formazan.
Then, the supernatant is removed from each well and 200 μL of DMSO are added.
After about ten minutes the concentration level of formazan has been taken by means of a spectrophotometer set at a wave length of 570 nm.

[2] = test system: cellular line of human promyelokytic leukemia (HL60); test: MTT test (reduction of tetrazolium salts) on human promyelokytic leukemia cells; assay type: cell-based; conditions: increasing concentrations
Description: as §1
Instead, the HL60 cells grow in suspension at a temperature of 37° C. and in 5% CO2, and the culture medium used is RPMI 1640 with 10% FBS (fetal bovine serum), 1% L-Glutamine and 1% Penicillin/Streptomycin antibiotics.
as §2, §3, §4
as §5, with “formazan. […]” for “formazan.”

Molecule	reduction of the cell survival (formazan absorbance data) [1]	morphologic changes visible with an optical microscope (loss of adherence to the plate, roundish shape with irregular outlines) [1]	reduction of the cell survival (formazan absorbance data), HL60 cells [2]
OC[C@H]1O[C@H](CCNc2ccc([As]3SCCS3)cc2)[C@H](O)[C@@H](O)[C@@H]1O [GD152.186]	reduction of the cell survival is directly depending on the dosage of the GD152.186 compound and on the time of exposure; also recorded: most visible when the cells have come into contact with high concentrations (100-200 μM)	morphologic changes have been surprisingly detected	reduction of the cell survival
arsenic trioxide [reference compound]	reduction of the cell survival is strictly dependent on the arsenic trioxide dosage and on the time of exposure	morphologic changes have been found	reduction of the cell survival
